Measured values taken from patent US11896591B2, “Compositions and methods for preparing and using mitochondrial uncouplers” (UNIVERSITY OF VIRGINIA PATENT FOUNDATION, priority 2017, dated 2024).

System: whole cells
Test: Oxygen consumption rate (OCR) in whole cells, Seahorse XF-24 Flux Analyzer
Type: cell-based
Settings: binned EC50 values; increase in oxygen consumption rate in whole cells
Procedure: Biological activities of the compounds synthesized is determined by determining increase in oxygen consumption rate (OCR).
OCR is measured using a Seahorse XF-24 Flux Analyzer (Seahorse Biosciences, North Billerica, MA). NMuLi, C2C12, and L6 cells are seeded in a Seahorse 24-well tissue culture plate at a density of 3.5×10^4 cells/well, isolated cardiomyocytes at a density of 4×10^4 cells/well, and human primary fibroblasts at a density of 1.1×10^4 cells/well. The cells are then allowed to adhere for 24 h. […] Compounds are injected during the assay and OCR is measured using 2 min measurement periods.
2-3 wells are used per condition and averaged over three plates (n=6-9). Statistical significance is determined by two-way ANOVA with Bonferroni's posttest.

EC50 [µM] | SMILES
5 to 20 | Fc1cc(Nc2nc3nc(C(F)(F)F)[nH]c3nc2Nc2ccc(C(F)(F)F)c(F)c2)ccc1C(F)(F)F [Compound 12h, N^5,N^6-bis(3-fluoro-4-(trifluoromethyl)phenyl)-2-(trifluoromethyl)-1H-imidazo[4,5-b]pyrazine-5,6-diamine]
5 to 20 | Fc1cc(F)cc(Nc2nc3nc(C(F)(F)F)[nH]c3nc2Nc2cc(F)cc(F)c2)c1 [Compound 12i, N^5,N^6-bis(3,5-difluorophenyl)-2-(trifluoromethyl)-1H-imidazo[4,5-b]pyrazine-5,6-diamine]
< 5 | Fc1cccc(Nc2nc3nc(C(F)(F)F)[nH]c3nc2Nc2cccc(F)c2F)c1F [Compound 12j, N^5,N^6-bis(2,3-difluorophenyl)-2-(trifluoromethyl)-1H-imidazo[4,5-b]pyrazine-5,6-diamine]
> 20 | Cc1ccc(Nc2nc3nc(C(F)(F)F)[nH]c3nc2Nc2ccc(C)cc2)cc1 [Compound 12k, N^5,N^6-di-p-tolyl-2-(trifluoromethyl)-1H-imidazo[4,5-b]pyrazine-5,6-diamine]
> 20 | FC(F)(F)c1nc2nc(Nc3ccccc3)c(Nc3ccccc3)nc2[nH]1 [Compound 12l, N^5,N^6-diphenyl-2-(trifluoromethyl)-1H-imidazo[4,5-b]pyrazine-5,6-diamine]
5 to 20 | FC(F)(F)Oc1ccc(Nc2nc3nc(C(F)(F)F)[nH]c3nc2Nc2ccc(OC(F)(F)F)cc2)cc1 [Compound 12m, N^5,N^6-bis(4-(trifluoromethoxy)phenyl)-2-(trifluoromethyl)-1H-imidazo[4,5-b]pyrazine-5,6-diamine]
> 20 | COc1ccc(Nc2nc3nc(C(F)(F)F)[nH]c3nc2Nc2ccc(OC)cc2)cc1 [Compound 12n, N^5,N^6-bis(4-methoxyphenyl)-2-(trifluoromethyl)-1H-imidazo[4,5-b]pyrazine-5,6-diamine]
5 to 20 | Fc1cccc(Nc2nc3[nH]c(C(F)(F)F)nc3nc2Nc2ccccc2F)c1 [Compound 12o, N^5-(2-fluorophenyl)-N^6-(3-fluorophenyl)-2-(trifluoromethyl)-1H-imidazo[4,5-b]pyrazine-5,6-diamine]
< 5 | Fc1ccccc1Nc1nc2nc(C(F)(F)F)[nH]c2nc1Nc1ccc(OC(F)(F)F)cc1 [Compound 12p, N^5-(2-fluorophenyl)-N^6-(4-(trifluoromethoxy)phenyl)-2-(trifluoromethyl)-1H-imidazo[4,5-b]pyrazine-5,6-diamine]
5 to 20 | Fc1ccccc1Nc1nc2nc(C(F)(F)F)[nH]c2nc1Nc1cc(C(F)(F)F)cc(C(F)(F)F)c1 [Compound 12q, N^5-(2-fluorophenyl)-N^6-(3,5-bis(trifluoromethyl)phenyl)-2-(trifluoromethyl)-1H-imidazo[4,5-b]pyrazine-5,6-diamine]
> 20 | COc1ccc(Nc2nc3[nH]c(C(F)(F)F)nc3nc2Nc2ccccc2F)cc1 [Compound 12r, N^5-(2-fluorophenyl)-N^6-(4-methoxyphenyl)-2-(trifluoromethyl)-1H-imidazo[4,5-b]pyrazine-5,6-diamine]
5 to 20 | Fc1ccccc1Nc1nc2nc(C(F)(F)F)[nH]c2nc1Nc1ccccc1 [Compound 12s, N^5-(2-fluorophenyl)-N^6-phenyl-2-(trifluoromethyl)-1H-imidazo[4,5-b]pyrazine-5,6-diamine]
< 5 | Fc1ccccc1Nc1nc2nc(C(F)(F)F)[nH]c2nc1Nc1cccc(C(F)(F)F)c1F [Compound 12t, N^5-(2-fluorophenyl)-N^6-(2-fluoro-3-(trifluoromethyl)phenyl)-2-(trifluoromethyl)-1H-imidazo[4,5-b]pyrazine-5,6-diamine]
5 to 20 | Cc1ccc(Nc2nc3[nH]c(C(F)(F)F)nc3nc2Nc2ccccc2F)cc1 [Compound 12u, N^5-(2-fluorophenyl)-N^6-(p-tolyl)-2-(trifluoromethyl)-1H-imidazo[4,5-b]pyrazine-5,6-diamine]
> 20 | Fc1ccccc1Nc1nc2nc(C(F)(F)F)[nH]c2nc1NC1CCCCC1 [Compound 12v, N^5-(2-fluorophenyl)-N^6-cyclohexyl-2-(trifluoromethyl)-1H-imidazo[4,5-b]pyrazine-5,6-diamine]
> 20 | CCCNc1nc2[nH]c(C(F)(F)F)nc2nc1Nc1ccccc1F [Compound 12w, N^5-(2-fluorophenyl)-N^6-propyl-2-(trifluoromethyl)-1H-imidazo[4,5-b]pyrazine-5,6-diamine]
> 20 | Cn1c(C(F)(F)F)nc2nc(Nc3ccccc3F)c(Nc3ccccc3F)nc21 [Compound 13a, N^5,N^6-bis(2-fluorophenyl)-1-methyl-2-(trifluoromethyl)-imidazo[4,5-b]pyrazine-5,6-diamine]

EC50 [µM] | SMILES
5 to 20 | Cn1c(C(F)(F)F)nc2nc(Nc3cc(C(F)(F)F)ccc3F)c(Nc3cc(C(F)(F)F)ccc3F)nc21 [Compound 13b, N^5,N^6-bis(2-fluoro-5-(trifluoromethyl)phenyl)-1-methyl-2-(trifluoromethyl)-imidazo[4,5-b]pyrazine-5,6-diamine]
5 to 20 | Cn1c(C(F)(F)F)nc2nc(Nc3ccccc3C(F)(F)F)c(Nc3ccccc3C(F)(F)F)nc21 [Compound 13c, N^5,N^6-bis(2-(trifluoromethyl)phenyl)-1-methyl-2-(trifluoromethyl)-imidazo[4,5-b]pyrazine-5,6-diamine]
5 to 20 | Cn1c(C(F)(F)F)nc2nc(Nc3cc(C(F)(F)F)cc(C(F)(F)F)c3)c(Nc3cc(C(F)(F)F)cc(C(F)(F)F)c3)nc21 [Compound 13d, N^5,N^6-bis(3,5-bis(trifluoromethyl)phenyl)-1-methyl-2-(trifluoromethyl)-imidazo[4,5-b]pyrazine-5,6-diamine]
5 to 20 | Cn1c(C(F)(F)F)nc2nc(Nc3cccc(C(F)(F)F)c3F)c(Nc3cccc(C(F)(F)F)c3F)nc21 [Compound 13e, N^5,N^6-bis(2-fluoro-3-(trifluoromethyl)phenyl)-1-methyl-2-(trifluoromethyl)-imidazo[4,5-b]pyrazine-5,6-diamine]
5 to 20 | Cn1c(C(F)(F)F)nc2nc(Nc3ccc(OC(F)(F)F)c(F)c3)c(Nc3ccc(OC(F)(F)F)c(F)c3)nc21 [Compound 13f, N^5,N^6-bis(3-fluoro-4-(trifluoromethoxy)phenyl)-1-methyl-2-(trifluoromethyl)-imidazo[4,5-b]pyrazine-5,6-diamine]
< 5 | Cn1c(C(F)(F)F)nc2nc(Nc3ccc(C(F)(F)F)cc3F)c(Nc3ccc(C(F)(F)F)cc3F)nc21 [Compound 13g, N^5,N^6-bis(2-fluoro-4-(trifluoromethyl)phenyl)-1-methyl-2-(trifluoromethyl)-imidazo[4,5-b]pyrazine-5,6-diamine]
> 20 | Cn1c(C(F)(F)F)nc2nc(Nc3ccc(C(F)(F)F)c(F)c3)c(Nc3ccc(C(F)(F)F)c(F)c3)nc21 [Compound 13h, N^5,N^6-bis(3-fluoro-4-(trifluoromethyl)phenyl)-1-methyl-2-(trifluoromethyl)-imidazo[4,5-b]pyrazine-5,6-diamine]
5 to 20 | Cn1c(C(F)(F)F)nc2nc(Nc3cc(F)cc(F)c3)c(Nc3cc(F)cc(F)c3)nc21 [Compound 13i, N^5,N^6-bis(3,5-difluorophenyl)-1-methyl-2-(trifluoromethyl)-imidazo[4,5-b]pyrazine-5,6-diamine]
> 20 | Cn1c(C(F)(F)F)nc2nc(Nc3cccc(F)c3F)c(Nc3cccc(F)c3F)nc21 [Compound 13j, N^5,N^6-bis(2,3-difluorophenyl)-1-methyl-2-(trifluoromethyl)-imidazo[4,5-b]pyrazine-5,6-diamine]
> 20 | Cc1ccc(Nc2nc3nc(C(F)(F)F)n(C)c3nc2Nc2ccc(C)cc2)cc1 [Compound 13k, 1-Methyl-N^5,N^6-di-p-tolyl-2-(trifluoromethyl)-imidazo[4,5-b]pyrazine-5,6-diamine]
5 to 20 | Cn1c(C(F)(F)F)nc2nc(Nc3ccc(OC(F)(F)F)cc3)c(Nc3ccc(OC(F)(F)F)cc3)nc21 [Compound 13m, 1-Methyl-N^5,N^6-bis(4-(trifluoromethoxy)phenyl)-2-(trifluoromethyl)-imidazo[4,5-b]pyrazine-5,6-diamine]
> 20 | Cn1c(C(F)(F)F)nc2nc(Nc3ccccc3F)c(Nc3ccc(OC(F)(F)F)cc3)nc21 [Compound 13p, 1-Methyl-N^5-(2-fluorophenyl)-N^6-(4-(trifluoromethoxy)phenyl)-2-(trifluoromethyl)-imidazo[4,5-b]pyrazine-5,6-diamine]
> 20 | Cn1c(C(F)(F)F)nc2nc(Nc3ccccc3F)c(Nc3cc(C(F)(F)F)cc(C(F)(F)F)c3)nc21 [Compound 13q, 1-Methyl-N^5-(2-fluorophenyl)-N^6-(3,5-bis(trifluoromethyl)phenyl)-2-(trifluoromethyl)-imidazo[4,5-b]pyrazine-5,6-diamine]
> 20 | COc1ccc(Nc2nc3c(nc2Nc2ccccc2F)nc(C(F)(F)F)n3C)cc1 [Compound 13r, 1-Methyl-N^5-(2-fluorophenyl)-N^6-(4-methoxyphenyl)-2-(trifluoromethyl)-imidazo[4,5-b]pyrazine-5,6-diamine]
> 20 | Cn1c(C(F)(F)F)nc2nc(Nc3ccccc3F)c(Nc3ccccc3)nc21 [Compound 13s, 1-Methyl-N^5-(2-fluorophenyl)-N^6-phenyl-2-(trifluoromethyl)-imidazo[4,5-b]pyrazine-5,6-diamine]
> 20 | Cn1c(C(F)(F)F)nc2nc(Nc3ccccc3F)c(Nc3cccc(C(F)(F)F)c3F)nc21 [Compound 13t, 1-Methyl-N^5-(2-fluorophenyl)-N^6-(2-fluoro-3-(trifluoromethyl)phenyl)-2-(trifluoromethyl)-imidazo[4,5-b]pyrazine-5,6-diamine]
> 20 | Cc1ccc(Nc2nc3c(nc2Nc2ccccc2F)nc(C(F)(F)F)n3C)cc1 [Compound 13u, 1-Methyl-N^5-(2-fluorophenyl)-N^6-(p-tolyl)-2-(trifluoromethyl)-imidazo[4,5-b]pyrazine-5,6-diamine]
